Measurements from patent US10800791B2, “Triazole ACC inhibitors and uses thereof” (Gilead Apollo, LLC, priority 2015, dated 2020).
Converted amounts (≈) assume the structure as drawn. Like-named read-outs stand apart in the source and are kept apart here.

Assays:
C. albicans = test: Antifungal Activity Assay (broth microtiter MIC), C. albicans; assay type: cell-based, Candida albicans; details: Candida albicans, ATCC90028, 48 h
Summary of the method: (§1)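 CLSI M27-A3 microdilution; RPMI 1640+MOPS; 2.5×10^3 CFU/mL final inoculum; cultures from Sabouraud dextrose agar, 35° C overnight; compound working solution 128 μg/mL from 1 mg/mL DMSO stock; visual MIC at 48 h vs growth control.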

C. krusei = test: Antifungal Activity Assay (broth microtiter MIC), C. krusei; assay type: cell-based, Candida krusei; details: Pichia kudriavzevii, ATCC6258, 48 h
Summary of the method: as §1

C. parapsilosis = test: Antifungal Activity Assay (broth microtiter MIC), C. parapsilosis; assay type: cell-based, Candida parapsilosis; details: Lodderomyces parapsilosis, ATCC22019, 48 h
Summary of the method: as §1

Botrtyis cinerea (Bc) = test: Growth inhibition assay of fungal pathogens, Bc; assay type: cell-based; details: 48 h
Summary of the method: (§2)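 Inhibition percentages reflect 48 h OD600 and visual scores relative to a 2% DMSO control. Test concentrations were 50, 10, 2 ppm or 2, 0.4, 0.08 ppm final, applied to spores in 17% V8 medium.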

[1] = tested on: Collectotrichum graminicola (Cg); test: Growth inhibition assay of fungal pathogens, Cg; assay type: cell-based; details: 48 h
Summary of the method: as §2

Diplodia maydis (Dm) = test: Growth inhibition assay of fungal pathogens, Dm; assay type: cell-based; details: Stenocarpella maydis, 48 h
Summary of the method: as §2

[2] = tested on: Fusarium moniliforme (Fm); test: Growth inhibition assay of fungal pathogens, Fm; assay type: cell-based; details: for IC90: Fusarium verticillioides, 48 h, read-out: Concentration at 90% Inhibition Fm
Summary of the method: as §2

[3] = tested on: Fusarium virguliforme (Fv); test: Growth inhibition assay of fungal pathogens, Fv; assay type: cell-based; details: 48 h
Summary of the method: as §2

[4] = tested on: Phytophthora capsici (Pc); test: Growth inhibition assay of fungal pathogens, Pc; assay type: cell-based; details: 48 h
Summary of the method: as §2

Septoria tritici (St) = test: Growth inhibition assay of fungal pathogens, St; assay type: cell-based; details: Zymoseptoria tritici, 48 h
Summary of the method: as §2

fungal (fACC2) = fungal (fACC2) (UniProt Q00955); details: read-out: fACC2 (in vitro ACC2 Inhibition Assay, IC50), ADP-Glo, 5 nM ACC2, 20 μM ATP, 20 μM acetyl-CoA
Chain of fungal (fACC2) (Q00955 whole entry): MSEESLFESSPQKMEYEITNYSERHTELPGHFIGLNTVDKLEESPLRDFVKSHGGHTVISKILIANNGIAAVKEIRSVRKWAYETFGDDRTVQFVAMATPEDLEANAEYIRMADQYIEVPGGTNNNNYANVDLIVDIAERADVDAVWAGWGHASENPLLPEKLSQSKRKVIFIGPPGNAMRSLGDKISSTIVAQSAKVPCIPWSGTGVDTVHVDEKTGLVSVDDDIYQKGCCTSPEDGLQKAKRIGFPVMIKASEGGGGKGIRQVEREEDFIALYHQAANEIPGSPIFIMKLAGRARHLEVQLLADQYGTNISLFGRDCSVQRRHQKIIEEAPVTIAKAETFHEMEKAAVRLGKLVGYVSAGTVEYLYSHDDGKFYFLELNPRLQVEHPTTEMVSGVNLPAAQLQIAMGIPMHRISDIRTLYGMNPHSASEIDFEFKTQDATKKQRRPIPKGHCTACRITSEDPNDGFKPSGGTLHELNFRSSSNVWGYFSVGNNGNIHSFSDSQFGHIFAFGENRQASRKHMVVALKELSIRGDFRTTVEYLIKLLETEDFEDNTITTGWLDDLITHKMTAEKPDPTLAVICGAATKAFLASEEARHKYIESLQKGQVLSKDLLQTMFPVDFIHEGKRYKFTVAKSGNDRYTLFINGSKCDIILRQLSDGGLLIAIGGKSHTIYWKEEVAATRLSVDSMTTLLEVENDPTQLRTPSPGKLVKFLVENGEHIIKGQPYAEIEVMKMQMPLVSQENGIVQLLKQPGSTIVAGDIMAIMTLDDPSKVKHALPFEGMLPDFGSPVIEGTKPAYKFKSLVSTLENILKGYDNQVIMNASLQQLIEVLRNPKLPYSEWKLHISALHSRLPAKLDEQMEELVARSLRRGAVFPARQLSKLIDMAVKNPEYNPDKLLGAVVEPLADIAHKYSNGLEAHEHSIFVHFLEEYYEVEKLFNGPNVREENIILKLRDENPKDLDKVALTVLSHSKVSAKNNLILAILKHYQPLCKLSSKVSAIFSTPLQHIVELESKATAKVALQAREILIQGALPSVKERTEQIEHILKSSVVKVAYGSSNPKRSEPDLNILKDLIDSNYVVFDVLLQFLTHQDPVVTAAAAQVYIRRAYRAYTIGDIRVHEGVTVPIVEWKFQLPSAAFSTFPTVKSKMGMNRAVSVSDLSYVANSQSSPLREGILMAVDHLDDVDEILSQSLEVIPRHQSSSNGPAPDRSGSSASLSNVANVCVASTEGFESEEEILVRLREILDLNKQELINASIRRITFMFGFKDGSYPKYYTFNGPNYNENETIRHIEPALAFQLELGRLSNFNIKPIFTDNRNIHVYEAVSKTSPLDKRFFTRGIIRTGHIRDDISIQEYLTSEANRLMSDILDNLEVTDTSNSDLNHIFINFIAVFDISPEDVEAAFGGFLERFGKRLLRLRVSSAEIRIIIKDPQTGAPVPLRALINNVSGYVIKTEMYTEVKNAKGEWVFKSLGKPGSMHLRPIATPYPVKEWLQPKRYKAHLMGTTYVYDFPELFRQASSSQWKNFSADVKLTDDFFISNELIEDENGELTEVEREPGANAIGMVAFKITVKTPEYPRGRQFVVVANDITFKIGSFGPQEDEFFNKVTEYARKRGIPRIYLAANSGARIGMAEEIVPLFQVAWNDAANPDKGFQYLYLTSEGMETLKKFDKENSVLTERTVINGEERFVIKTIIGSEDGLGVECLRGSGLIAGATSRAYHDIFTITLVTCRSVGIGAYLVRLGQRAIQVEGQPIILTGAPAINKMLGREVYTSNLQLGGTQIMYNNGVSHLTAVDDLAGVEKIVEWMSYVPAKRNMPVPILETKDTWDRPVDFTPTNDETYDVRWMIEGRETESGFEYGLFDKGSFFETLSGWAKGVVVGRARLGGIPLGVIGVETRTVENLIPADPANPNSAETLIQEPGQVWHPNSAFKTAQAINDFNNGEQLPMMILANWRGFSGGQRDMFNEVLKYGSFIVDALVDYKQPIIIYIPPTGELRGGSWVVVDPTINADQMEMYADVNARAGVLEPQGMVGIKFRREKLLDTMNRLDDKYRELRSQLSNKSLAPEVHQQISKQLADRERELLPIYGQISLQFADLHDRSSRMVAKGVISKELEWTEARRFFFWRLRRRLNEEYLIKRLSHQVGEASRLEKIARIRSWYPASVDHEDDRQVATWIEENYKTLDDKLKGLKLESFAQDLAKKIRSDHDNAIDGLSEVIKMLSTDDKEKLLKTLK

[5] = Fusarium moniliforme, growth inhibition at 48 hours vs 2% DMSO control

C=CCNC(=O)C(C)(C)n1c(=O)c2c(C)c(-n3nccn3)sc2n(C[C@H](OC2CCOCC2)c2cc(F)ccc2OC)c1=O [Compound I-70, (R)—N-allyl-2-(1-(2-(5-fluoro-2-methoxyphenyl)-2-((tetrahydro-2H-pyran-4-yl)oxy)ethyl)-5-methyl-2,4-dioxo-6-(2H-1,2,3-triazol-2-yl)-1,4-dihydrothieno[2,3-d]pyrimidin-3(2H)-yl)-2-methylpropanamide]
MIC (C. albicans; read-out: MIC, C. albicans ATCC 90028, Table 3a, 3 replicates, MIC recorded at 48 h): 0.25 to 1 µg/mL (≈ 0.399 to 1.6 µM)
MIC (C. albicans; read-out: MIC, C. albicans ATCC 90028, Table 3b (additional results), 3 replicates, MIC recorded at 48 h): 0.25 to 1 µg/mL (≈ 0.399 to 1.6 µM)
MIC (C. krusei; read-out: MIC, C. krusei ATCC 6258, Table 3a, 3 replicates, MIC recorded at 48 h): 0.25 to 1 µg/mL (≈ 0.399 to 1.6 µM)
MIC (C. krusei; read-out: MIC, C. krusei ATCC 6258, Table 3b (additional results), 3 replicates, MIC recorded at 48 h): 0.25 to 1 µg/mL (≈ 0.399 to 1.6 µM)
MIC (C. parapsilosis; read-out: MIC, C. parapsilosis ATCC 22019, Table 3a, 3 replicates, MIC recorded at 48 h): 0.25 to 1 µg/mL (≈ 0.399 to 1.6 µM)
MIC (C. parapsilosis; read-out: MIC, C. parapsilosis ATCC 22019, Table 3b (additional results), 3 replicates, MIC recorded at 48 h): 1.01 to 2 µg/mL (≈ 1.61 to 3.19 µM)
IC90 (Botrtyis cinerea (Bc); read-out: Concentration at 90% Inhibition Bc, Botrtyis cinerea, growth inhibition at 48 hours vs 2% DMSO control): 2 µg/mL (≈ 3.19 µM)
IC90 (Botrtyis cinerea (Bc); read-out: Concentration at 90% Inhibition Bc, Botrtyis cinerea, growth inhibition vs 2% DMSO control at 48 hours): 2 µg/mL (≈ 3.19 µM)
IC90 ([1]; read-out: Concentration at 90% Inhibition Cg, Collectotrichum graminicola, growth inhibition at 48 hours vs 2% DMSO control): 2 µg/mL (≈ 3.19 µM)
IC90 ([1]; read-out: Concentration at 90% Inhibition Cg, Collectotrichum graminicola, growth inhibition vs 2% DMSO control at 48 hours): 2 µg/mL (≈ 3.19 µM)
IC90 (Diplodia maydis (Dm); read-out: Concentration at 90% Inhibition Dm, Diplodia maydis, growth inhibition at 48 hours vs 2% DMSO control): 2 µg/mL (≈ 3.19 µM)
IC90 (Diplodia maydis (Dm); read-out: Concentration at 90% Inhibition Dm, Diplodia maydis, growth inhibition vs 2% DMSO control at 48 hours): 2 µg/mL (≈ 3.19 µM)
Concentration at 90% Inhibition Fm [2, 5]: AA (compound concentration of 0.08 ppm at 90% inhibition of fungal pathogens)
IC90 [2]: 0.08 µg/mL (≈ 0.128 µM)
IC90 ([3]; read-out: Concentration at 90% Inhibition Fv, Fusarium virguliforme, growth inhibition at 48 hours vs 2% DMSO control): 0.4 µg/mL (≈ 0.638 µM)
IC90 ([3]; read-out: Concentration at 90% Inhibition Fv, Fusarium virguliforme, growth inhibition vs 2% DMSO control at 48 hours): 0.4 µg/mL (≈ 0.638 µM)
IC90 ([4]; read-out: Concentration at 90% Inhibition Pc, Phytophthora capsici, growth inhibition at 48 hours vs 2% DMSO control): > 50 µg/mL
IC90 ([4]; read-out: Concentration at 90% Inhibition Pc, Phytophthora capsici, growth inhibition vs 2% DMSO control at 48 hours): > 50 µg/mL
IC90 (Septoria tritici (St); read-out: Concentration at 90% Inhibition St, Septoria tritici, growth inhibition at 48 hours vs 2% DMSO control): > 50 µg/mL
IC90 (Septoria tritici (St); read-out: Concentration at 90% Inhibition St, Septoria tritici, growth inhibition vs 2% DMSO control at 48 hours): > 50 µg/mL
IC50 (fungal (fACC2); Table 2a): 1 to 5 nM
IC50 (fungal (fACC2); Table 2b, additional results): 1 to 5 nM

C=CCN(C)C(=O)C(C)(C)n1c(=O)c2c(C)c(-n3nccn3)sc2n(C[C@H](OC2CCOCC2)c2cc(F)ccc2OC)c1=O [Compound I-71, (R)—N-allyl-2-(1-(2-(5-fluoro-2-methoxyphenyl)-2-((tetrahydro-2H-pyran-4-yl)oxy)ethyl)-5-methyl-2,4-dioxo-6-(2H-1,2,3-triazol-2-yl)-1,4-dihydrothieno[2,3-d]pyrimidin-3(2H)-yl)-N,2-dimethylpropanamide]
MIC (C. albicans; Table 3a, ATCC 90028, 3 replicates, MIC recorded at 48 h, read-out: MIC, C. albicans ATCC 90028): 0.25 to 1 µg/mL (≈ 0.39 to 1.56 µM)
MIC (C. albicans; Table 3b (additional results), ATCC 90028, 3 replicates, MIC recorded at 48 h, read-out: MIC, C. albicans ATCC 90028): 0.25 to 1 µg/mL (≈ 0.39 to 1.56 µM)
MIC (C. krusei; Table 3a, ATCC 6258, 3 replicates, MIC recorded at 48 h, read-out: MIC, C. krusei ATCC 6258): 0.25 to 1 µg/mL (≈ 0.39 to 1.56 µM)
MIC (C. krusei; Table 3b (additional results), ATCC 6258, 3 replicates, MIC recorded at 48 h, read-out: MIC, C. krusei ATCC 6258): 0.25 to 1 µg/mL (≈ 0.39 to 1.56 µM)
MIC (C. parapsilosis; Table 3a, ATCC 22019, 3 replicates, MIC recorded at 48 h, read-out: MIC, C. parapsilosis ATCC 22019): 0.25 to 1 µg/mL (≈ 0.39 to 1.56 µM)
MIC (C. parapsilosis; Table 3b (additional results), ATCC 22019, 3 replicates, MIC recorded at 48 h, read-out: MIC, C. parapsilosis ATCC 22019): 1.01 to 2 µg/mL (≈ 1.58 to 3.12 µM)
IC90 (Botrtyis cinerea (Bc); Botrtyis cinerea, growth inhibition at 48 hours vs 2% DMSO control, read-out: Concentration at 90% Inhibition Bc): 0.4 µg/mL (≈ 0.624 µM)
IC90 (Botrtyis cinerea (Bc); Botrtyis cinerea, growth inhibition vs 2% DMSO control at 48 hours, read-out: Concentration at 90% Inhibition Bc): 0.4 µg/mL (≈ 0.624 µM)
IC90 ([1]; Collectotrichum graminicola, growth inhibition at 48 hours vs 2% DMSO control, read-out: Concentration at 90% Inhibition Cg): 0.08 µg/mL (≈ 0.125 µM)
IC90 ([1]; Collectotrichum graminicola, growth inhibition vs 2% DMSO control at 48 hours, read-out: Concentration at 90% Inhibition Cg): 0.08 µg/mL (≈ 0.125 µM)
IC90 (Diplodia maydis (Dm); Diplodia maydis, growth inhibition at 48 hours vs 2% DMSO control, read-out: Concentration at 90% Inhibition Dm): 0.4 µg/mL (≈ 0.624 µM)
IC90 (Diplodia maydis (Dm); Diplodia maydis, growth inhibition vs 2% DMSO control at 48 hours, read-out: Concentration at 90% Inhibition Dm): 0.4 µg/mL (≈ 0.624 µM)
IC90 [2, 5]: 0.08 µg/mL (≈ 0.125 µM)
IC90 ([2]; Fusarium moniliforme, growth inhibition vs 2% DMSO control at 48 hours): 0.08 µg/mL (≈ 0.125 µM)
IC90 ([3]; growth inhibition at 48 hours vs 2% DMSO control, read-out: Concentration at 90% Inhibition Fv): 2 µg/mL (≈ 3.12 µM)
IC90 ([3]; growth inhibition vs 2% DMSO control at 48 hours, read-out: Concentration at 90% Inhibition Fv): 2 µg/mL (≈ 3.12 µM)
IC90 ([4]; growth inhibition at 48 hours vs 2% DMSO control, read-out: Concentration at 90% Inhibition Pc): > 50 µg/mL
IC90 ([4]; growth inhibition vs 2% DMSO control at 48 hours, read-out: Concentration at 90% Inhibition Pc): > 50 µg/mL
IC90 (Septoria tritici (St); Septoria tritici, growth inhibition at 48 hours vs 2% DMSO control, read-out: Concentration at 90% Inhibition St): > 50 µg/mL
IC90 (Septoria tritici (St); Septoria tritici, growth inhibition vs 2% DMSO control at 48 hours, read-out: Concentration at 90% Inhibition St): > 50 µg/mL
IC50 (fungal (fACC2); Table 2a): 1 to 5 nM
IC50 (fungal (fACC2); Table 2b, additional results): 1 to 5 nM
